Test results reported in patent publication US20240418717A1, “APPARATUS AND METHOD FOR ANALYZING PLATELET AGGREGATION” (MEDTRONIC VASCULAR, INC., priority 2020, published 2024).

How the values were obtained:
platelet poor plasma = assay: Platelet aggregation by washer (disk) minimum position in platelet poor plasma; assay type: cell-based; conditions: platelet poor plasma containing 1.5 U/mL heparin; 20 micromolar ADP; FIG. 9
From the text: Platelet poor plasma […] containing 1.5 U/mL heparin was filled into a six-channel cartridge similar to cartridge 200 depicted in and described regarding FIG. 7 for use with a blood analyzer similar to analyzer 300 depicted and described regarding FIG. 6. The analyzer and cartridge were similar to those described in U.S. Pat. Nos. 5,629,209 and 6,613,286. A chamber of the cartridge contained ADP such that the concentration in the chamber was 20 micromolar after introduction of the sample. No other clot enhancing agent was in the sample or chamber of the cartridge. The chambers included a ferromagnetic washer. Following introduction of the sample after the cartridge was inserted into the blood analyzer, the test was started, and platelet aggregation was analyzed. The blood analyzer was programmed to hold the washer (disk) at the top of the chamber for 90 to 95% of the test cycle (a test cycle is the time sum of lift time and drop time), which was about 4.5 seconds for a test cycle of 5 seconds, to ensure platelets in the test sample aggregated and accumulated at the bottom of the chamber. The washer was allowed to drop (electromagnet deactivated), and the washer minimum position was determined.

[1] = tested on: platelets in platelet rich plasma (PRP); assay: Platelet aggregation by washer (disk) minimum position in platelet rich plasma; assay type: cell-based; conditions: platelet rich plasma containing 1.5 U/mL heparin; 20 micromolar ADP; relative to absence of ADP; FIG. 8
From the text: Platelet rich plasma (PRP) containing 1.5 U/mL heparin was filled into a six-channel cartridge similar to cartridge 200 depicted in and described regarding FIG. 7 for use with an analyzer similar to analyzer 300 depicted in and described regarding FIG. 6. The analyzer and cartridge were similar to those described in U.S. Pat. Nos. 5,629,209 and 6,613,286.
One chamber of the cartridge contained ADP such that the concentration in the chamber was 20 micromolar after introduction of the sample. Another chamber included no ADP. No other clot enhancing agent was in the sample or chamber of the cartridge. The chambers included a ferromagnetic washer. The cartridge was inserted in the analyzer before PRP sample fill. Immediately after the sample introduction, the test began, and platelet aggregation was analyzed.
The analyzer was programmed to hold the washer (disk) at the top of the chamber for 90 to 95% of the test cycle (a test cycle is the time sum of lift time and drop time), which was about 4.5 seconds for a test cycle of 5 seconds, to ensure platelets in the test sample aggregated and accumulated at the bottom of the chamber. The washer was allowed to drop (electromagnet deactivated), and the washer minimum position was determined by the proximity sensor (e.g., sensor 30 depicted in and described regarding FIGS. 2-5) in the presence and absence of ADP.

`Nc1ncnc2c1ncn2[C@@H]1O[C@H](COP(=O)(O)OP(=O)(O)O)[C@@H](O)[C@H]1O` [ADP, adenosine diphosphate] was tested, and the “disk minimal position (platelet aggregation)” value (platelet poor plasma) was “did not increase” and the “washer (disk) minimum position (platelet aggregation)” value [1] was “increased”.
